Legend:
[1] = tested on: AGS gastric carcinoma cells [heterozygous G12D]; assay: Cancer cell line proliferation (CellTiter-Glo), AGS; format: cell-based; conditions: Homo sapiens, 72 hr, read-out: CTG(IC50), ABS-72 H(nM) AGS
Method: (§1) The following cancer cell lines were employed: AGS gastric carcinoma [heterozygous G12D] (ATCC, CRL-1739); A-427 lung carcinoma [heterozygous G12D] (ATCC, HTB-53); ASPC1 pancreatic adenocarcinoma [homozygous G12D] (ATCC, CRL-1682) and SW1990 pancreatic adenocarcinoma [homozygous G12D] (ATCC CRL-2172). Cell lines were cultured essentially according to ATCC recommendations.
(§2) AGS, A-427, ASPC1, SW1990, and GP2D cells were plated in 96-well tissue culture plates at 4,000 cells/well and incubated at 37° C./5% CO2 for 72 hr in 100 μl of media. 3-fold serial dilutions of each test compound were prepared ranging from 20 μM to 1.02 nM. Each cell line was then treated with test compounds at various concentrations with a final concentration of 0.5% DMSO/well, and then incubated at 37° C./5% CO2 for 72 hr. 100 μl of CellTiter-Glo® Reagent (Promega Corporation, Madison, WI) was added to each well and processed according manufacturer's protocol. Results were analyzed and IC50 5 values were calculated in GraphPad 7 software.

[2] = tested on: ASPC1 pancreatic adenocarcinoma cells [homozygous G12D]; assay: Cancer cell line proliferation (CellTiter-Glo), ASPC1; format: cell-based; conditions: Homo sapiens, ASPC-1 cells, 72 hr, read-out: CTG(IC50), ABS-72 H(nM) ASPC-1
Method: as §1, §2

[3] = tested on: SW1990 pancreatic adenocarcinoma cells [homozygous G12D]; assay: Cancer cell line proliferation (CellTiter-Glo), SW1990; format: cell-based; conditions: Homo sapiens, 72 hr, read-out: CTG(IC50), ABS-72 H(nM) SW1990
Method: as §1, §2

[4] = tested on: A-427 lung carcinoma cells [heterozygous G12D]; assay: Cancer cell line proliferation (CellTiter-Glo), A-427; format: cell-based; conditions: Homo sapiens, A427 cells, 72 hr, read-out: CTG(IC50), ABS-72 H(nM) A427
Method: as §1, §2

KRAS (G12D)/SOS1 = target: T1, KRAS (G12D)/SOS1 (Homo sapiens, UniProt P01116, G12D); assay: KRAS (G12D)/SOS1 homogeneous time-resolved fluorescence (HTRF) assay; format: binding; conditions: absence of GTP, 4° C. for 3 hr
T1 construct: purchased Cisbio 63ADK000CB17PEH
Method: 3-fold serial dilutions of each test compound were prepared ranging from 20 μM to 1.02 nM. The test compound was mixed and incubated with reaction components, incubated in a sealed plate at 4° C. for 3 hr and fluorescence was measured using a PerkinElmer Envision plate reader. […]

[5] = Oral bioavailability in CD-1 mice; conditions: male, CD-1, mouse, blood
Method: (§3) CD-1 mice were randomly assigned to 6 groups with 3 male mice in each compound group. […] Compounds were orally administered (PO) in a single dose to each mouse in its group. Blood samples were taken within 72 hours. Bioavailability (F %) was determined and by liquid chromatography-mass spectrometry (LC-MS/MS).

in vivo = conditions: male, CD-1, mouse, po
Method: as §3

T1 sequence (P01116 1-188 isoform P01116-2 G12D): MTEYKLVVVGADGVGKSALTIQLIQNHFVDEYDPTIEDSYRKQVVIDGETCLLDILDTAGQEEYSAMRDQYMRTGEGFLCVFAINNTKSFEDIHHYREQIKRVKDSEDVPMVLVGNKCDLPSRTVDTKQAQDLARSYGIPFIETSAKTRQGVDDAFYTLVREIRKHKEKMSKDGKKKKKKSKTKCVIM

C#Cc1c(F)ccc2cc(O)cc(-c3ncc4c(N5CC6CCC(C5)N6)nc(OCC5(CN6CCC(F)CC6)CC5)nc4c3F)c12 [Example 1, 4-(4-(3,8-diazabicyclo[3.2.1]octan-3-yl)-8-fluoro-2-((1-((4-fluoropiperidin-1-yl)methyl)cyclopropyl)methoxy)pyrido[4,3-d]pyrimidin-7-yl)-5-ethynyl-6-fluoronaphthalen-2-ol]
IC50 [1]: < 100 nM | IC50 [2]: < 100 nM | IC50 [3]: < 100 nM | IC50 [4]: < 100 nM | IC50 (KRAS (G12D)/SOS1): < 100 nM | bioavailability ([5]; 25 mg/kg): 0.8%

[2H]C([2H])([2H])Oc1nc(-c2cc(O)cc3ccc(F)c(C#C)c23)c(F)c2nc(OCC3(CN4CC5CC5C4)CC3)nc(N3CC4CCC(C3)N4)c12 (centres unmarked) [Example 4]
IC50 [1]: < 100 nM | IC50 [2]: < 100 nM | IC50 [3]: < 100 nM | IC50 [4]: < 100 nM | IC50 (KRAS (G12D)/SOS1): < 100 nM | bioavailability ([5]; 25 mg/kg): 5.4%

C#Cc1c(F)ccc2cc(O)cc(-c3ncc4c(N5CC6CCC(C5)N6)nc(OCC5(CN6CC7CC7C6)CC5)nc4c3F)c12 (centres unmarked) [Example 13]
IC50 [1]: < 100 nM | IC50 [2]: < 100 nM | IC50 [3]: < 100 nM | IC50 [4]: < 100 nM | IC50 (KRAS (G12D)/SOS1): < 100 nM | bioavailability [5]: 1.98%

C#Cc1c(F)ccc2cc(O)cc(-c3ncc4c(N5CC6CCC(C5)N6)nc(OCC5(CN6CCC(C(F)(F)F)CC6)CC5)nc4c3F)c12 [Example 14]
IC50 [1]: < 100 nM | IC50 [2]: < 100 nM | IC50 [3]: < 100 nM | IC50 [4]: < 100 nM | IC50 (KRAS (G12D)/SOS1): < 100 nM | bioavailability [5]: 5.81%

C#Cc1c(F)ccc2cc(O)cc(-c3nc(OC)c4c(N5CC6CCC(C5)N6)nc(OCC5(CN6CCC(F)CC6)CC5)nc4c3F)c12 [Example 19]
IC50 [1]: < 100 nM | IC50 [2]: < 100 nM | IC50 [3]: < 100 nM | IC50 [4]: < 100 nM | IC50 (KRAS (G12D)/SOS1): < 100 nM | bioavailability [5]: 9.39%

C#Cc1c(F)ccc2cc(O)cc(-c3nc(OC)c4c(N5CC6CCC(C5)N6)nc(OCC5(CN6CCOCC6)CC5)nc4c3F)c12 [Example 33]
IC50 [1]: < 100 nM | IC50 [2]: < 100 nM | IC50 [3]: < 100 nM | IC50 [4]: 100 to 1000 nM | IC50 (KRAS (G12D)/SOS1): < 100 nM

C#Cc1c(F)ccc2cc(O)cc(-c3nc(Cl)c4c(N5CC6CCC(C5)N6)nc(OCC5(CN6CCC(C(F)(F)F)CC6)CC5)nc4c3F)c12 [Example 36]
IC50 [1]: < 100 nM | IC50 [2]: < 100 nM | IC50 [3]: < 100 nM | IC50 [4]: 100 to 1000 nM | IC50 (KRAS (G12D)/SOS1): < 100 nM

C#Cc1c(F)ccc2cc(O)cc(-c3ncc4c(N5CC6CCC(C5)N6)nc(OCC5(CN6CC7C(C6)C7C(F)(F)F)CC5)nc4c3F)c12 (centres unmarked) [Example 37]
IC50 [1]: < 100 nM | IC50 [2]: < 100 nM | IC50 [3]: < 100 nM | IC50 [4]: 100 to 1000 nM | IC50 (KRAS (G12D)/SOS1): < 100 nM | bioavailability [5]: 10.6%

C#Cc1c(F)ccc2cc(O)cc(-c3nc(OC)c4c(N5CC6CCC(C5)N6)nc(OCC5(CN6CCC(C#N)C6)CC5)nc4c3F)c12 (centres unmarked) [Example 38]
IC50 [1]: < 100 nM | IC50 [2]: < 100 nM | IC50 [3]: < 100 nM | IC50 (KRAS (G12D)/SOS1): < 100 nM | bioavailability [5]: 1.8%

C#Cc1c(F)ccc2cc(O)cc(-c3nc(C)c4c(N5CC6CCC(C5)N6)nc(OCC5(CN6CCC(C(F)(F)F)CC6)CC5)nc4c3F)c12 [Example 39]
IC50 [1]: < 100 nM | IC50 [2]: < 100 nM | IC50 [3]: < 100 nM | IC50 [4]: 100 to 1000 nM | IC50 (KRAS (G12D)/SOS1): < 100 nM

C#Cc1c(F)ccc2cc(O)cc(-c3nc(OC4CC4)c4c(N5CC6CCC(C5)N6)nc(OCC5(CN6CC7CC7C6)CC5)nc4c3F)c12 (centres unmarked) [Example 40]
IC50 [1]: < 100 nM | IC50 [2]: < 100 nM | IC50 [3]: < 100 nM | IC50 [4]: 100 to 1000 nM | IC50 (KRAS (G12D)/SOS1): < 100 nM

C#Cc1c(F)ccc2cc(O)cc(-c3nc(OC)c4c(N5CC6CCC(C5)N6)nc(OCC5(CN6CC7C(C6)C7C(F)(F)F)CC5)nc4c3F)c12 (centres unmarked) [Example 41]
IC50 [1]: < 100 nM | IC50 [2]: < 100 nM | IC50 [3]: < 100 nM | IC50 [4]: 100 to 1000 nM | IC50 (KRAS (G12D)/SOS1): < 100 nM

C#Cc1c(F)ccc2cc(O)cc(-c3nc(OC)c4c(N5CC6CCC(C5)N6)nc(OCC5(CN6CC(F)C(F)C6)CC5)nc4c3F)c12 (centres unmarked) [Example 42]
IC50 [1]: < 100 nM | IC50 [2]: < 100 nM | IC50 [3]: < 100 nM | IC50 [4]: 100 to 1000 nM | IC50 (KRAS (G12D)/SOS1): < 100 nM

C#Cc1c(F)ccc2cc(O)cc(-c3nc(OC)c4c(N5CC6CCC(C5)N6)nc(OCC5(CN6CCC7CC76)CC5)nc4c3F)c12 (centres unmarked) [Example 43]
IC50 [1]: < 100 nM | IC50 [2]: < 100 nM | IC50 [3]: < 100 nM | IC50 [4]: 100 to 1000 nM | IC50 (KRAS (G12D)/SOS1): < 100 nM | bioavailability [5]: 2.37%

C#Cc1c(F)ccc2cc(O)cc(-c3ncc4c(N5CC6CCC(C5)N6)nc(OCC5(CN6CC7C(C#N)C7C6)CC5)nc4c3F)c12 (centres unmarked) [Example 44]
IC50 [1]: < 100 nM | IC50 [2]: < 100 nM | IC50 [3]: < 100 nM | IC50 [4]: 100 to 1000 nM | IC50 (KRAS (G12D)/SOS1): < 100 nM | bioavailability [5]: 2.38%

C#Cc1c(F)ccc2cc(O)cc(-c3nc(OC)c4c(N5CC6CCC(C5)N6)nc(OCC5(CN6CC7C(C6)C7(F)F)CC5)nc4c3F)c12 (centres unmarked) [Example 49]
IC50 [1]: < 100 nM | IC50 [2]: < 100 nM | IC50 [3]: < 100 nM | IC50 (KRAS (G12D)/SOS1): < 100 nM | bioavailability [5]: 3.82%

C#Cc1c(F)ccc2cc(O)cc(-c3nc(OC)c4c(N5CC6CCC(C5)N6)nc(OCC5(CN6CC7C(C#N)C7C6)CC5)nc4c3F)c12 (centres unmarked) [Example 51]
IC50 [1]: < 100 nM | IC50 [2]: < 100 nM | IC50 [3]: < 100 nM | IC50 (KRAS (G12D)/SOS1): < 100 nM | bioavailability [5]: 2.3%

C#Cc1c(F)ccc2cc(O)cc(-c3ncc4c(N5CC6CCC(C5)N6C(=O)OC(C)OC(C)=O)nc(OCC5(CN6CCC(F)CC6)CC5)nc4c3F)c12 (centres unmarked) [Example 52]
IC50 [1]: < 100 nM | IC50 [2]: < 100 nM | IC50 [3]: < 100 nM | IC50 [4]: 100 to 1000 nM | IC50 (KRAS (G12D)/SOS1): < 100 nM

C#Cc1cccc2cc(O)cc(-c3ncc4c(N5CC6CCC(C5)N6)nc(OCC5(CN6CC7C(C6)C7(F)F)CC5)nc4c3F)c12 (centres unmarked) [Example 100]
bioavailability (in vivo): 1.7%

C#Cc1c(F)ccc2cc(O)cc(-c3nc(OC)c4c(N5CC6CCC(C5)N6C(=O)OC(C)OC(C)=O)nc(OCC5(CN6CC7CC7C6)CC5)nc4c3F)c12 (centres unmarked) [Example 146]
bioavailability (in vivo): 8.3%

C#Cc1c(F)ccc2cc(O)cc(-c3nc(OC)c4c(N5CC6CCC(C5)N6C(=O)OCOC(=O)C(C)C)nc(OCC5(CN6CC7CC7C6)CC5)nc4c3F)c12 (centres unmarked) [Example 148]
bioavailability (in vivo): 6.8%

C#Cc1c(F)ccc2cc(O)cc(-c3ncc4c(N5CC6CCC(C5)N6)nc(OCC5(CN6CC7C(F)C7C6)CC5)nc4c3F)c12 (centres unmarked) [Example 149]
bioavailability (in vivo): 12.9%

C#Cc1c(F)ccc2cc(O)cc(-c3nc(OC)c4c(N5CC6CCC(C5)N6)nc(OCC5(CN6CC7C(F)C7C6)CC5)nc4c3F)c12 (centres unmarked) [Example 155]
bioavailability (in vivo): 8.03%

COc1nc(-c2cc(N)cc(Cl)c2C(F)(F)F)c(F)c2nc(OCC3(CN4CC5CC5C4)CC3)nc(N3CC4CCC(C3)N4)c12 (centres unmarked) [Example 165]
bioavailability (in vivo): 13.8%

[2H]C([2H])([2H])Oc1nc(-c2cc(O)cc3ccc(F)c(C#C)c23)c(F)c2nc(OCC3(CN4CC5C(F)C5C4)CC3)nc(N3CC4CCC(C3)N4)c12 (centres unmarked) [Example 167]
bioavailability (in vivo): 7.14%

C#Cc1c(F)ccc2c(F)c(O)cc(-c3nc(OC)c4c(N5CC6CCC(C5)N6)nc(OCC5(CN6CC7CC7C6)CC5)nc4c3F)c12 (centres unmarked) [Example 168]
bioavailability (in vivo): 13.6%

C#Cc1c(F)ccc2cc(N)cc(-c3nc(OC)c4c(N5CC6CCC(C5)N6)nc(OCC5(CN6CC7CC7C6)CC5)nc4c3F)c12 (centres unmarked) [Example 184]
bioavailability (in vivo): 5.75%

C#Cc1c(F)ccc2cc(O)cc(-c3nc(OC)c4c(N5CC6CCC(C5)N6)nc(OCC5(CN6CCC6)CC5)nc4c3F)c12 [Ref. 2, reference compound]
IC50 [1]: < 100 nM | IC50 [2]: 100 to 1000 nM | IC50 [3]: 100 to 1000 nM | IC50 (KRAS (G12D)/SOS1): < 100 nM | bioavailability ([5]; 25 mg/kg): 0.15%

C#Cc1c(F)ccc2cc(O)cc(-c3nc(OC)c4c(N5CC6CCC(C5)N6)nc(OCC5(CN6CCCC6)CC5)nc4c3F)c12 [Ref. 3, reference compound]
IC50 [1]: < 100 nM | bioavailability [5]: 0.23%

C#Cc1c(F)ccc2cc(O)cc(-c3nc(OC)c4c(N5CC6CCC(C5)N6)nc(OCC5(CN(C)C)CC5)nc4c3F)c12 [Ref. 4, reference compound]
IC50 [1]: < 100 nM | bioavailability [5]: 0.23%
